{"source": "patent US11440923B2", "about": "“Substituted macrocyclic indole derivatives” (Bayer Aktiengesellschaft, priority 2017, dated 2022)", "key": {"AMO-1 cells": {"system": "AMO-1 cells", "experiment": "Antiproliferation assay AMO-1 (Assay 7)", "type": "cell-based", "procedure,_shortened": "(§1)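 Luminescent viability signal (CellTiter-Glo) after 72 h of treatment served as read-out. IC50 values were derived with day 0 luminescence as CI and DMSO wells as C0.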"}, "HMC-1-8 cells": {"system": "HMC-1-8 cells", "experiment": "Antiproliferation assay HMC-1-8 (Assay 7)", "type": "cell-based", "procedure,_shortened": "as §1"}, "BCL-2": {"molecular_target": "BCL-2 (Homo sapiens (Human), UniProt P10415)", "sequence (P10415 1-211)": "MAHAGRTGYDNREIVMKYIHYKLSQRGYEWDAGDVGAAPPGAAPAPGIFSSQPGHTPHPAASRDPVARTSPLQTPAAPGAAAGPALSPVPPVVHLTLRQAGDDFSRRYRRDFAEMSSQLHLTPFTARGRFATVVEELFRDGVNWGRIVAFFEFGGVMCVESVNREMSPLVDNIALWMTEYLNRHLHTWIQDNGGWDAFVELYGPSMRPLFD", "experiment": "Protein-protein interaction assay BCL-2/Bad BH3 peptide (BCL-2 assay, TR-FRET)", "type": "binding", "conditions": "read-out: BCL-2 Assay IC50 (median)", "procedure,_shortened": "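TR-FRET competition: 665/620 nm emission ratio after 330-350 nm excitation, normalized to DMSO controls and fitted to a 4-parameter model for IC50. Used 1 nM His-BCL-2 (residues 1-211) with 1 nM biotin-Bad BH3 tracer, Tris pH 7 with NaCl, KF, DTT. Compound/protein preincubation 10 min at 22° C. Read after 1 h 22° C plus overnight 4° C.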"}, "[1]": {"conditions": "Homo sapiens, AMO1, 72 h, 72 h, CellTiter-Glo, read-out: Antiproli AMO-1 IC50 median"}, "[2]": {"conditions": "72 h, CellTiter-Glo, read-out: Antiproli HMC-1-8 IC50 median"}, "[3]": {"conditions": "read-out: Antiproli AMO-1 IC50 median, 72 h, CellTiter-Glo"}, "[4]": {"conditions": "read-out: Antiproli HMC-1-8 IC50 median; 72 h, CellTiter-Glo"}}, "note": "Counter-ions that a name gives are not always drawn. Like-named read-outs stand apart in the source and are kept apart here.", "data": [{"smiles": "COCCC1OCCCCn2c(C(=O)O)c(CCCOc3cccc4ccccc34)c3ccc(Cl)c(c32)-c2c1nn(C)c2C", "note": "(racemic) [Example 37, (rac)-4-chloro-(15-rac)-(2-methoxyethyl)-2,3-dimethyl-7-{3-[(naphthalen-1-yl)oxy]propyl}-2,10,11,12,13,15-hexahydropyrazolo[4′,3′:9,10][1,6]oxazacycloundecino[8,7,6-hi]indole-8-carboxylic Acid]", "values": [{"measurement": "IC50", "setting": "AMO-1 cells; [1]", "value": 0.536, "unit": "µM"}, {"measurement": "IC50", "setting": "HMC-1-8 cells; [2]", "value": 7.45, "unit": "µM"}, {"measurement": "IC50", "setting": "BCL-2", "value": "> 20", "unit": "µM"}]}, {"smiles": "Cc1c2c(nn1C)C(CCN1CCOCC1)OCCCCn1c(C(=O)O)c(CCCOc3cccc4cc(F)ccc34)c3ccc(Cl)c-2c31", "note": "(racemic) [Example 16, (rac)-4-chloro-7-{3-[(6-fluoronaphthalen-1-yl)oxy]propyl}-2,3-dimethyl-15-[2-(morpholin-4-yl)ethyl]-2,10,11,12,13,15-hexahydropyrazolo[4′,3′:9,10][1,6]oxazacycloundecino[8,7,6-hi]indole-8-carboxylic Acid]", "values": [{"measurement": "IC50", "setting": "AMO-1 cells; [1]", "value": 0.0483, "unit": "µM"}, {"measurement": "IC50", "setting": "HMC-1-8 cells; [2]", "value": 0.322, "unit": "µM"}, {"measurement": "IC50", "setting": "BCL-2", "value": "> 20", "unit": "µM"}]}, {"smiles": "CCc1c2c(nn1C)C(CC(C)(C)O)OCCCCn1c(C(=O)O)c(CCCOc3cccc4cc(F)ccc34)c3ccc(Cl)c-2c31", "note": "(single isomer, unassigned; enantiomer 1) [Example 53, (+)-4-chloro-3-ethyl-7-{3-[(6-fluoronaphthalen-1-yl)oxy]propyl}-15-(2-hydroxy-2-methylpropyl)-2-methyl-2,10,11,12,13,15-hexahydropyrazolo[4′,3′:9,10][1,6]oxazacycloundecino[8,7,6-hi]indole-8-carboxylic Acid—N-ethylethanamine Salt (Enantiomer 1)]", "values": [{"measurement": "IC50", "setting": "AMO-1 cells; [3]", "value": 0.185, "unit": "µM"}, {"measurement": "IC50", "setting": "HMC-1-8 cells; [4]", "value": 0.983, "unit": "µM"}, {"measurement": "IC50", "setting": "BCL-2", "value": 17, "unit": "µM"}]}, {"smiles": "CCc1c2c(nn1C)C(c1ccccc1)OCCCCn1c(C(=O)O)c(CCCOc3cccc4cc(F)ccc34)c3ccc(Cl)c-2c31", "note": "(racemic) [Example 59, (rac)-4-chloro-3-ethyl-7-{3-[(6-fluoronaphthalen-1-yl)oxy]propyl}-2-methyl-(15-rac)-phenyl-2,10,11,12,13,15-hexahydropyrazolo[4′,3′:9,10][1,6]oxazacycloundecino[8,7,6-hi]indole-8-carboxylic Acid]", "values": [{"measurement": "IC50", "setting": "AMO-1 cells; [1]", "value": 0.753, "unit": "µM"}, {"measurement": "IC50", "setting": "HMC-1-8 cells; [2]", "value": 3.41, "unit": "µM"}, {"measurement": "IC50", "setting": "BCL-2", "value": 13.2, "unit": "µM"}]}, {"smiles": "CCc1c2c(nn1C)C(CCO)OCCCCn1c(C(=O)O)c(CCCOc3cccc4cc(F)ccc34)c3ccc(Cl)c-2c31", "note": "(single isomer, unassigned; enantiomer 2) [Example 46, (−)-4-chloro-3-ethyl-7-{3-[(6-fluoronaphthalen-1-yl)oxy]propyl}-15-(2-hydroxyethyl)-2-methyl-2,10,11,12,13,15-hexahydropyrazolo[4′,3′:9,10][1,6]oxazacycloundecino[8,7,6-hi]indole-8-carboxylic Acid (Enantiomer 2)]", "values": [{"measurement": "IC50", "setting": "AMO-1 cells; 72 h, CellTiter-Glo, read-out: Antiproli AMO-1 IC50 median", "value": 8.65, "unit": "µM"}, {"measurement": "IC50", "setting": "HMC-1-8 cells; 72 h, CellTiter-Glo; read-out: Antiproli HMC-1-8 IC50 median", "value": "> 33", "unit": "µM"}, {"measurement": "IC50", "setting": "BCL-2", "value": "> 20", "unit": "µM"}]}, {"smiles": "CCc1c2c(nn1C)C(CCCN1CCOCC1)OCCCCn1c(C(=O)O)c(CCCOc3cccc4cc(F)ccc34)c3ccc(Cl)c-2c31", "note": "(racemic) [Example 65, (rac)-4-chloro-3-ethyl-7-{3-[(6-fluoronaphthalen-1-yl)oxy]propyl}-2-methyl-(15-rac)-[3-(morpholin-4-yl)propyl]-2,10,11,12,13,15-hexahydropyrazolo[4′,3′:9,10][1,6]oxazacycloundecino[8,7,6-hi]indole-8-carboxylic Acid]", "values": [{"measurement": "IC50", "setting": "AMO-1 cells; [1]", "value": 0.0897, "unit": "µM"}, {"measurement": "IC50", "setting": "HMC-1-8 cells; [2]", "value": 0.4, "unit": "µM"}, {"measurement": "IC50", "setting": "BCL-2", "value": "> 20", "unit": "µM"}]}, {"smiles": "CCC1OCCCCn2c(C(=O)O)c(CCCOc3cccc4ccccc34)c3ccc(Cl)c(c32)-c2c1nn(C)c2C", "note": "(racemic) [Example 25, (rac)-4-chloro-15-ethyl-2,3-dimethyl-7-{3-[(naphthalen-1-yl)oxy]propyl}-2,10,11,12,13,15-hexahydropyrazolo[4′,3′:9,10][1,6]oxazacycloundecino[8,7,6-hi]indole-8-carboxylic Acid]", "values": [{"measurement": "IC50", "setting": "AMO-1 cells; [1]", "value": 6.55, "unit": "µM"}, {"measurement": "IC50", "setting": "HMC-1-8 cells; [2]", "value": 12.9, "unit": "µM"}, {"measurement": "IC50", "setting": "BCL-2", "value": "> 20", "unit": "µM"}]}, {"smiles": "CCC1OCCCCn2c(C(=O)O)c(CCCOc3cccc4ccccc34)c3ccc(Cl)c(c32)-c2c1nn(C)c2C", "note": "(single isomer, unassigned; enantiomer 2) [Example 30, (−)-4-chloro-15-ethyl-2,3-dimethyl-7-{3-[(naphthalen-1-yl)oxy]propyl}-2,10,11,12,13,15-hexahydropyrazolo[4′,3′:9,10][1,6]oxazacycloundecino[8,7,6-hi]indole-8-carboxylic Acid—N-ethylethanamine Salt (Enantiomer 2)]", "values": [{"measurement": "IC50", "setting": "AMO-1 cells; [3]", "value": 31.6, "unit": "µM"}, {"measurement": "IC50", "setting": "HMC-1-8 cells; [4]", "value": 22.6, "unit": "µM"}, {"measurement": "IC50", "setting": "BCL-2", "value": "> 20", "unit": "µM"}]}, {"smiles": "CCc1c2c(nn1C)C(CCN1CCC(F)(F)C1)OCCCCn1c(C(=O)O)c(CCCOc3cccc4cc(F)ccc34)c3ccc(Cl)c-2c31", "note": "(racemic) [Example 55, (rac)-4-chloro-(15-rac)-[2-(3,3-difluoropyrrolidin-1-yl)ethyl]-3-ethyl-7-{3-[(6-fluoronaphthalen-1-yl)oxy]propyl}-2-methyl-2,10,11,12,13,15-hexahydropyrazolo[4′,3′:9,10][1,6]oxazacycloundecino[8,7,6-hi]indole-8-carboxylic acid—2-hydroxypropane-1,2,3-tricarboxylic Acid Salt]", "values": [{"measurement": "IC50", "setting": "AMO-1 cells; [1]", "value": 0.0753, "unit": "µM"}, {"measurement": "IC50", "setting": "HMC-1-8 cells; [2]", "value": 0.172, "unit": "µM"}, {"measurement": "IC50", "setting": "BCL-2", "value": "> 20", "unit": "µM"}]}, {"smiles": "CCc1c2c(nn1C)C(CCC(C)(C)O)OCCCCn1c(C(=O)O)c(CCCOc3cccc4cc(F)ccc34)c3ccc(Cl)c-2c31", "note": "(racemic) [Example 74, (rac)-4-chloro-3-ethyl-7-{3-[(6-fluoronaphthalen-1-yl)oxy]propyl}-(15-rac)-(3-hydroxy-3-methylbutyl)-2-methyl-2,10,11,12,13,15-hexahydropyrazolo[4′,3′:9,10][1,6]oxazacycloundecino[8,7,6-hi]indole-8-carboxylic Acid]", "values": [{"measurement": "IC50", "setting": "AMO-1 cells; [1]", "value": 0.0358, "unit": "µM"}, {"measurement": "IC50", "setting": "HMC-1-8 cells; [2]", "value": 0.397, "unit": "µM"}, {"measurement": "IC50", "setting": "BCL-2", "value": 19.6, "unit": "µM"}]}, {"smiles": "Cc1c2c(nn1C)C(C1CC1)OCCCCn1c(C(=O)O)c(CCCOc3cccc4ccccc34)c3ccc(Cl)c-2c31", "note": "(single isomer, unassigned; enantiomer 2) [Example 36, (−)-4-chloro-15-cyclopropyl-2,3-dimethyl-7-{3-[(naphthalen-1-yl)oxy]propyl}-2,10,11,12,13,15-hexahydropyrazolo[4′,3′:9,10][1,6]oxazacycloundecino[8,7,6-hi]indole-8-carboxylic Acid N-ethylethanamine Salt (Enantiomer 2)]", "values": [{"measurement": "IC50", "setting": "AMO-1 cells; [3]", "value": 15.8, "unit": "µM"}, {"measurement": "IC50", "setting": "HMC-1-8 cells; [4]", "value": 19, "unit": "µM"}, {"measurement": "IC50", "setting": "BCL-2", "value": 14.6, "unit": "µM"}]}, {"smiles": "Cc1c2c(nn1C)C(CCN1CCOCC1)OCCCCn1c(C(=O)O)c(CCCOc3cccc4cc(F)ccc34)c3ccc(Cl)c-2c31", "note": "(single isomer, unassigned; enantiomer 1) [Example 17, 4-chloro-7-{3-[(6-fluoronaphthalen-1-yl)oxy]propyl}-2,3-dimethyl-15-[2-(morpholin-4-yl)ethyl]-2,10,11,12,13,15-hexahydropyrazolo[4′,3′:9,10][1,6]oxazacycloundecino[8,7,6-hi]indole-8-carboxylic Acid—N-ethylethanamine (Enantiomer 1)]", "values": [{"measurement": "IC50", "setting": "AMO-1 cells; Homo sapiens, AMO1, 72 h, read-out: Antiproli AMO-1 IC50 median, 72 h, CellTiter-Glo", "value": 0.0282, "unit": "µM"}, {"measurement": "IC50", "setting": "HMC-1-8 cells; 72 h, read-out: Antiproli HMC-1-8 IC50 median, 72 h, CellTiter-Glo", "value": 0.201, "unit": "µM"}, {"measurement": "IC50", "setting": "BCL-2", "value": "> 20", "unit": "µM"}]}, {"smiles": "CCc1c2c(nn1C)C(CCN1CCOCC1)OCCCCn1c(C(=O)O)c(CCCOc3cccc4ccccc34)c3ccc(F)c-2c31", "note": "(racemic) [Example 10, (rac)-3-ethyl-4-fluoro-2-methyl-15-[2-(morpholin-4-yl)ethyl]-7-[3-(naphthalen-1-yloxy)propyl]-2,10,11,12,13,15-hexahydropyrazolo[4′,3′:9,10][1,6]oxazacycloundecino[8,7,6-hi]indole-8-carboxylic Acid]", "values": [{"measurement": "IC50", "setting": "AMO-1 cells; [1]", "value": 0.412, "unit": "µM"}, {"measurement": "IC50", "setting": "HMC-1-8 cells; [2]", "value": 1.49, "unit": "µM"}, {"measurement": "IC50", "setting": "BCL-2", "value": "> 20", "unit": "µM"}]}]}
